Experiment [1] concerns Enterococcus faecalis. The experiment in a line: Antimicrobial activity against Enterococcus faecalis ATCC29212 measured after 24 hrs by CLSI protocol based microdilution method. In kind it is functional.
In experiment [2] the test system is Staphylococcus aureus. The experiment is described as follows: Antimicrobial activity against […] Staphylococcus aureus ATCC33591 measured after 24 hrs by CLSI protocol based microdilution method. In kind it is functional.
Experiment [3] has as its system Staphylococcus aureus. The experiment in a line: Antimicrobial activity against […] Staphylococcus aureus ATCC43300 measured after 24 hrs by CLSI protocol based microdilution method. In kind it is functional. For orientation: Dilution methods test growth across graded concentrations, often in twofold steps.
In experiment [4] the test system is Acinetobacter baumannii. The experiment is described as follows: Antimicrobial activity against Acinetobacter baumannii ATCC19606 measured after 24 hrs by CLSI protocol based microdilution method. Format: functional.
The subject of experiment [5] is Staphylococcus aureus. The experiment in a line: Antimicrobial activity against methicillin-susceptible Staphylococcus aureus ATCC29213 measured after 24 hrs by CLSI protocol based microdilution method. In kind it is functional.
Experiment [6] has as its system Enterococcus faecium. The experiment is described as follows: Antimicrobial activity against Enterococcus faecium ATCC19434 measured after 24 hrs by CLSI protocol based microdilution method. In kind it is functional.
Experiment [7] has as its target T1, Enoyl-[acyl-carrier-protein] reductase [NADPH] FabI (Staphylococcus aureus) (UniProt Q6GI75).
T1 sequence (whole entry): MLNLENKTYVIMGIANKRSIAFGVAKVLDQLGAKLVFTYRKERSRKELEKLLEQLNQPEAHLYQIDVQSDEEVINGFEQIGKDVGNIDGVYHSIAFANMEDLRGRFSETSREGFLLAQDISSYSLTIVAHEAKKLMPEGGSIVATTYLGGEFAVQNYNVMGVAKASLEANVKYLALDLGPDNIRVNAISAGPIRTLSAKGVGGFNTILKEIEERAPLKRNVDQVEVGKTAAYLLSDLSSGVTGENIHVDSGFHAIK
The experiment in a line: Inhibition of N-terminal his 6 tagged Staphylococcus aureus Fabi (1 to […] residues) expressed in Escherichia coli BL21 at 1 uM incubated for 30 mins in presence of NADPH by fluorescence based microplate reader analysis relative to control.

The test system of experiment [8] is Staphylococcus aureus. The experiment is described as follows: Antimicrobial activity against […] Staphylococcus aureus USA300 measured after 24 hrs by CLSI protocol based microdilution method. Format: functional.
The target of experiment [9] is T1, Enoyl-[acyl-carrier-protein] reductase [NADPH] FabI (Staphylococcus aureus). The experiment in a line: Inhibition of N-terminal his 6 tagged Staphylococcus aureus Fabi (1 to […] residues) expressed in Escherichia coli BL21 at 10 uM incubated for 30 mins in presence of NADPH by fluorescence based microplate reader analysis relative to control.
The subject of experiment [10] is Pseudomonas aeruginosa. The experiment is described as follows: Antimicrobial activity against Pseudomonas aeruginosa PAO1 measured after 24 hrs by CLSI protocol based microdilution method. In kind it is functional.
The test system of experiment [11] is Candida albicans. The experiment is described as follows: Antimicrobial activity against Candida albicans SC5314 measured after 48 hrs by CLSI protocol based microdilution method. In kind it is functional.
Experiment [12] concerns Escherichia coli. The experiment is described as follows: Antimicrobial activity against Escherichia coli ATCC25922 measured after 24 hrs by CLSI protocol based microdilution method. In kind it is functional.
In experiment [13] the test system is Staphylococcus aureus. The experiment is described as follows: Antimicrobial activity against methicillin-susceptible Staphylococcus aureus ATCC25923 measured after 24 hrs by CLSI protocol based microdilution method. In kind it is functional.
The subject of experiment [14] is Staphylococcus aureus. The experiment is described as follows: Antimicrobial activity against […] Staphylococcus aureus NRS271 measured after 24 hrs by CLSI protocol based microdilution method. Format: functional.

In general, MIC refers to the lowest concentration found to suppress growth. Lower therefore signals inhibition by little substance. Usually inhibition stands for how much of the control response was suppressed. Consider `Cc1cccc(NC(=O)CCNC(=O)CCc2nc3ccccc3n2C)c1C`, for which the MIC in experiment [1], in experiment [2], in experiment [3], in [4], in experiment [5] and in experiment [6] was more than 32 µg/mL throughout. The MIC in experiment [8], in experiment [10], in experiment [11], in experiment [12], in experiment [13] and in experiment [14] was more than 32 µg/mL throughout. Further, the inhibition stood at 6.9% in experiment [7] and 33.2% in [9].

As to `Cc1cccc(C(=O)NCCNC(=O)CCc2nc3ccccc3n2C)c1C`, the MIC in [1], in experiment [2], in experiment [3], in experiment [4], in experiment [5] and in experiment [6] was more than 32 µg/mL in each case. Also, the MIC in experiment [8], in [10], in experiment [11], in experiment [12], in experiment [13] and in experiment [14] was more than 32 µg/mL in each case. Further, the inhibition in [7] was found to be 5.2%; in experiment [9] it was 25.6%.

Regarding `Cn1c(C2CC(=O)N(c3ccc(N4CCOCC4)cc3)C2)nc2ccccc21` (stereo unspecified), the MIC in experiment [1], in experiment [2], in experiment [3], in experiment [4], in experiment [5] and in [6] was more than 32 µg/mL throughout. The MIC in [8], in experiment [10], in [11], in [12], in experiment [13] and in experiment [14] was more than 32 µg/mL each time. Besides, the inhibition in [7] came out at 8.2%; in experiment [9], 7.7%.

With `Cn1c(C2CC(=O)N(Cc3ccccc3)C2)nc2ccccc21` (stereo unspecified), the MIC in experiment [1], in [2], in experiment [3], in experiment [4], in [5] and in experiment [6] was more than 32 µg/mL each time. Moreover, the MIC in [8], in experiment [10], in experiment [11], in experiment [12], in experiment [13] and in experiment [14] was more than 32 µg/mL throughout. In addition, the results for the inhibition in experiment [7] and in [9] were 4.6% and 27.9%, respectively.

As for `Cc1cccc(NC(=O)c2nc3ccccc3n2C)c1C`, the MIC in experiment [1], in experiment [2], in experiment [3], in experiment [4], in [5] and in [6] was more than 32 µg/mL each time. In addition, the MIC in experiment [8], in experiment [10], in experiment [11], in experiment [12], in [13] and in [14] was more than 32 µg/mL each time. For the same compound, the figures for the inhibition in [7] and in experiment [9] were 5.2% and 8.9%, respectively.

For `Cn1c(C2CC(=O)N(c3ccc(F)c(F)c3)C2)nc2ccccc21` (stereo unspecified), the MIC in [1], in experiment [2], in experiment [3], in experiment [4], in experiment [5] and in [6] was more than 32 µg/mL throughout. Also, the MIC in [8], in experiment [10], in [11], in experiment [12], in experiment [13] and in experiment [14] was more than 32 µg/mL in each case. Besides, the inhibition in experiment [7] was 2.7%; in experiment [9], 40.1%.

For `Cn1c(CCC(=O)NCc2ccccc2)nc2ccccc21`, the MIC in experiment [1], in experiment [2], in experiment [3], in experiment [4], in [5] and in [6] was more than 32 µg/mL throughout. In addition, the MIC in experiment [8], in [10], in [11], in [12], in experiment [13] and in experiment [14] was more than 32 µg/mL each time. For the same compound, the inhibition is 7.9% in experiment [7] and 6.1% in [9].

Regarding `Cn1c(C2CC(=O)N(c3ccc4ncsc4c3)C2)nc2ccccc21` (stereo unspecified), the MIC in experiment [1], in experiment [2], in experiment [3], in experiment [4], in [5] and in [6] was more than 32 µg/mL throughout. Besides, the MIC in experiment [8], in [10], in [11], in [12], in experiment [13] and in [14] was more than 32 µg/mL in each case. The inhibition in experiment [7] was determined as 4.1%; in [9] it was 43.4%.

As to `Cn1c(C2CC(=O)N(c3noc4ccccc34)C2)nc2ccccc21` (stereo unspecified), the MIC in experiment [1], in experiment [2], in [3], in experiment [4], in [5] and in experiment [6] was more than 32 µg/mL each time. For the same compound, the MIC in [8], in experiment [10], in experiment [11], in [12], in experiment [13] and in experiment [14] was more than 32 µg/mL throughout. In addition, the results for the inhibition in experiment [7] and in experiment [9] were 2.5% and 11.6%, respectively.

As to `Cn1c(CCC(=O)NCCC(=O)NCc2ccccc2)nc2ccccc21`, the MIC in experiment [1], in experiment [2], in [3], in experiment [4], in experiment [5] and in experiment [6] was more than 32 µg/mL throughout. Further, the MIC in experiment [8], in experiment [10], in experiment [11], in experiment [12], in experiment [13] and in experiment [14] was more than 32 µg/mL each time. Further, the figures for the inhibition in [7] and in experiment [9] were 7.5% and 24.7%, respectively.

For `O=C1CC(c2nc3ccccc3[nH]2)CN1c1cccc2ccccc12` (stereo unspecified), the MIC in experiment [1], in experiment [2], in experiment [3], in [4], in experiment [5] and in [6] was more than 32 µg/mL in each case. Further, the MIC in [8], in experiment [10], in [11], in experiment [12], in experiment [13] and in experiment [14] was more than 32 µg/mL each time. Also, the inhibition in [7] was determined as 3.2%; in experiment [9], 15.4%.

Take `Cc1cccc(NC(=O)CCNC(=O)c2nc3ccccc3n2C)c1C`: the MIC in experiment [1], in experiment [2], in [3], in experiment [4], in experiment [5] and in [6] was more than 32 µg/mL in each case. For the same compound, the MIC in experiment [8], in [10], in [11], in experiment [12], in experiment [13] and in experiment [14] was more than 32 µg/mL in each case. In addition, the inhibition was 4.8% in experiment [7] and 6.6% in experiment [9].

As to `Cn1c(C(=O)NCc2ccccc2)nc2ccccc21`, the MIC in experiment [1], in experiment [2], in experiment [3], in [4], in [5] and in [6] was more than 32 µg/mL in each case. Also, the MIC in [8], in experiment [10], in [11], in [12], in [13] and in experiment [14] was more than 32 µg/mL throughout. In addition, the inhibition in experiment [7] was found to be 6.2%; in [9] it was 4.7%.

For the compound `Cn1c(C2CC(=O)N(c3ccc(Br)c(Br)c3)C2)nc2ccccc21` (stereo unspecified), the minimal inhibitory concentration (MIC) in [1], in experiment [2], in experiment [3], in experiment [4], in experiment [5] and in experiment [6] was more than 32 µg/mL each time. For the same compound, the MIC in experiment [8], in experiment [10], in [11], in experiment [12], in experiment [13] and in [14] was more than 32 µg/mL each time. Moreover, the values for the inhibition in [7] and in experiment [9] were 4.8% and 45.4%, respectively.

The record behind these values is ChEMBL document CHEMBL5500393, “Discovery and Optimization of Novel SaFabI Inhibitors as Specific Therapeutic Agents for MRSA Infection” (J Med Chem, 2024).
